Laboratory results reported in US20050113317A1, “Combination of dehydroepiandrosterone or dehydroepiandrosterone-sulfate with a cromone for treatment of asthma or chronic obstructive pulmonary disease” (priority 2003, published 2005).
Several values for one entry are separate records, joined by “and”; a condition that tells them apart may be missing. Equal values may be shown once.

Assays:
[1] = Particle size of jet-milled / spray-dried DHEA-S (Malvern Mastersizer X, light microscope); type: physicochemical; conditions: two batches, visual examination of dispersions
Description: Approximately 1 g sample was passed through the jet mill, once, and approximately 2 g sample were passed through the jet mill twice. […] The resulting solution was sonicated for 3 minutes and appeared fully dispersed. The dispersed solutions were tested on a Malvern Mastersizer X with a small volume sampler (SVS) attachment. One sample of dispersed material was tested 5 times. The median particle size or D (v, 0.5) of unmilled material was 52.56 μm and the % RSD (relative standard deviation) was 7.61 for the 5 values. The D (v, 0.5) for a single pass through the jet mill was 3.90 μm and the % RSD was 1.27, and the D (v, 0.5) from a double pass through the jet mill 3.25 μm and the % RSD was 3.10.
The solution was spray-dried with a B-191 Mini Spray-Drier (Buchi, Flawil, Switzerland) with an inlet temperature of 55° C., outlet temperature of 40° C., at 100% aspirator, at 10% pump, nitrogen flow at 40 mbar and spray flow at 600 units. The spray-dried product was suspended in hexane and Span85 surfactant added to reduce agglomeration. The dispersions were sonicated with cooling for 3-5 minutes for complete dispersion and the dispersed solutions tested on a Malvern Mastersizer X with a Small Volume Sampler (SVS) attachment. […] Visual examination by light microscope of the dispersions of each batch confirmed that spray drying produced small respirable size particles. […]

HT-29 SF cells [2] = assay: Reversal of DHEA effect on cell cycle; type: cell-based, human; conditions: 25 FM DHEA
[3] = system: Intracellular adenosine in various Rat Tissues; assay: In vivo effect on adenosine levels in rat tissues
Description: Folinic acid (50 mg/kg) was administered intraperitoneally once daily for fourteen days. […] Hearts were removed from animals and flash frozen in liquid nitrogen with 10 s of death. Liver and lungs were removed en bloc and flash frozen with 30 s of death. Brain tissue was subsequently dissected.

HT-29 SF cells [4] = assay: DHEA effect on cell cycle (flow cytometry); type: cell-based, human
[5] = Solid-state stability with and without lactose at 50° C. (DHEA formed, HPLC); type: physicochemical; conditions: 1 week at 50° C.; neat and lactose blend
Excerpt: These conditions were used to stress the formulation in order to predict its long-term stability results. […] The primary degradant is DHEA. […] The materials on accelerated storage become more cohesive with time as evidenced by clumping during sample weighing for chemical analysis. […] This is a considerable disadvantage since lactose is the most commonly used inhalation excipient for dry powder formulations. Continuing with the virtually anhydrous form would mean limiting formulations to neat powder or undertaking more comprehensive safety studies to use a novel excipient.

[6] = HPLC analysis of drug degradation during jet milling; type: physicochemical; conditions: HPLC peak area vs unmilled standard; single- and double-pass
Description: Two vials (A; single-pass; 150 mg) and (B double-pass; 600 mg) of the micronized drug were available for determining drug degradation during jet milling micronization. […] The chromatographic peak area for the HPLC assay of the unmilled drug standard solution (10 mg/ml) gave a value of 23,427. […] The chromatographic peak areas for vials A and B were 11,979 and 11,677, respectively.

[7] = Solubility of DHEA-S in NaCl media; type: physicochemical
Excerpt: Inhalation of pure water can produce a cough stimulus. […] The temperature effect is weaker at high NaCl concentrations.

[8] = Short-term solution stability of DHEA-S nebulizer formulation; type: physicochemical; conditions: for appearance / solution stability: 10 mg/mL in 0.12% NaCl
Description: Aliquots of this solution are filled into clear glass vials and stored at RT (24-26° C.) and at 40° C. The samples are checked daily for DHEA-S content, DHEA content, and appearance. For each time point, duplicate samples are withdrawn and diluted from each vial. […] The study is stopped on day three. […] The solution should easily be stable for the day of reconstitution in a clinical trial. The following section describes the aerosol properties of this formulation.

[9] = system: rat peritoneal mast cells; assay: Mast cell degranulation (histamine secretion) after compound 48/80; type: cell-based
Description: We determined whether DHEA-sulfate would reduce mast cell degranulation after stimulation with compound 48/80 in rat peritoneal mast cells. Mast cell degranulation was quantified by measurement of histamine, a substance contained within the secretory granules of mast cells. The release of histamine is believed to parallel the release of leukotrienes and contribute to the respiratory dysfunction.
Freshly isolated rat peritoneal mast cells (2×10^5 cells) were pre-incubated for 5 min at 37° C. in a Balanced Salt Solution containing 150 mM NaCl (pH 7.4), 2.7 mM KCl, 0.9 mM CaCl2, 4 mM Na2HPO4, 2.7 mM KH2PO4, 1.75 mg/ml BSA and 0.1 μg/ml compound 48/80.
Following incubation, the mixture is cooled to 4° C. then centrifuged at 4500 rpm for 5 min. The supernatant is collected and mixed for 30 min at 4° C. with 5% TCA (trichloroacetic acid) to cause protein precipitation. After centrifugation at 9500×g for 15 min, the supernatant is collected and mixed with 0.25 M HCl. Thereafter, the samples are mixed with 2M NaOH and 0.2% OPT (ortho-phtalaldehyde) and incubated for 30 min at 4° C. in darkness, after which time the reaction is stopped by addition of 0.5 M H2SO4.
The amount of secreted histamine is quantified by measuring the fluorescence intensity at λex=360 nm and λem=450 nm using a spectrofluorimeter (GeminiXS, Molecular Devices). The results are expressed as a percent inhibition of control histamine secretion.

[10] = Solubility remarks in text; type: physicochemical; conditions: 10^-4 M; mast cell assay conditions
[11] = 15° C., 20 mM Na^+, Ksp 1316 mM^2

## C[C@]12CC[C@H](OS(=O)(=O)[O-])CC1=CC[C@@H]1[C@@H]2CC[C@]2(C)C(=O)CC[C@@H]12.[Na+] [Anhydrous DHEA-S]
[1]
  mean particle size by light microscope: 2.4 μm and 2.0 μm

## CC(C)CCC[C@@H](C)[C@H]1CC[C@H]2[C@@H]3CC=C4C[C@@H](O)CC[C@]4(C)[C@H]3CC[C@]12C [CH, cholesterol]
HT-29 SF cells [2]; 72 hours
  prevention of DHEA-induced S phase depletion: no effect

## C[C@]12CC[C@H](O)CC1=CC[C@@H]1[C@@H]2CC[C@]2(C)C(=O)CC[C@@H]12 [DHEA, 3β-hydroxyandrost-5-en-17-one]
[3]; rat, in vivo
  effect on tissue adenosine: multi-organ depletion of adenosine
HT-29 SF cells [4]; 200 μM DHEA, after 24 hours
  cell cycle distribution: more rapid increase in the percentage of cells in G1 and a decreased proportion of cells in S phase
HT-29 SF cells [4]; 25, 50, 200 μM, 24-72 hours
  cell cycle effect: G1 block in HT-29 SF cells in a time-and dose-dependent manner

## CC12CCC3C(CC=C4CC(OS(=O)(=O)[O-])CCC43C)C1CCC2=O.[Na+] (centres unmarked) [DHEA-S Dihydrate]
[5]
  DHEA generated on storage: virtually no DHEA generated

## C[C@]12CC[C@H](OS(=O)(=O)[O-])CC1=CC[C@@H]1[C@@H]2CC[C@]2(C)C(=O)CC[C@@H]12.[Na+] [DHEA-S, sodium dehydroepiandrostenone sulfate]
[6]
  degradation during jet milling micronization: no detectable degradation
[7]; [11]
  estimated DHEA-S solution concentration: 10.7 mg/mL
  estimated DHEA-S^− solution concentration: 27.5 mM
[7]; RT and refrigerated
  solubility as a function of NaCl concentration: decrease with NaCl concentration
[7]; RT, buffered vs unbuffered
  effect of 20 mM phosphate buffer on solubility: suppress the solubility
[8]; 7.5 mg/mL of DHEA-S in 0.12% NaCl, RT
  solution stability: stable for at least one day at RT
[8]; 40° C.
  appearance / solution stability: became cloudy after two days of storage
[8]; RT (24-26° C.)
  appearance / solution stability: slight precipitate is observed on the third day
[9]; at 0.1 uM, percent inhibition of control histamine secretion
  maximal effect, inhibition of mast cell degranulation: 69.9%
[9]; rat peritoneal mast cells, compound 48/80
  inhibition of mast cell degranulation: concentration-dependent inhibition
[9]; rat peritoneal mast cells, compound 48/80, histamine secretion, read-out: EC50, inhibition of mast cell degranulation
  EC50: 170 nM
[10]
  solubility under assay conditions: highly limited

## C[C@@](O)(CCO)CC(=O)O [MVA, mevalonic acid]
HT-29 SF cells [2]; 48 hours
  prevention of DHEA-induced S phase depletion: partially prevented this effect

## C[C@]12CCC(=O)C=C1CC[C@@H]1[C@@H]2CC[C@@]2(C)[C@H]1CC[C@]2(C)O [Methyltestosterone]
[3]; rats, administered daily for two weeks
  effect on tissue adenosine: multi-organ depletion of adenosine
